# Results: ChEMBL document CHEMBL3045446, “In vitro antimicrobial and antimycobacterial activity of some chalcones and their derivatives” (2013)
# Key:
# Assay type in all cases: functional
# [1] = system: Shigella flexneri; assay: Antimicrobial activity against Shigella flexneri MTCC1457 assessed as growth inhibition after 24 hr by agar streak dilution method; conditions: MTCC1457, 24 h
# [2] = system: Candida albicans; assay: Antimicrobial activity against Candida albicans MTCC 183 assessed as diameter of growth inhibition zone after 48 hr; note: test concentration or dose not given here
# [3] = system: Staphylococcus aureus; assay: Antimicrobial activity against Staphylococcus aureus MTCC 96 assessed as growth inhibition after 24 hr by agar streak dilution method; conditions: MTCC 96, 24 h
# [4] = system: Escherichia coli; assay: Antimicrobial activity against Escherichia coli MTCC 739 assessed as growth inhibition after 24 hr by agar streak dilution method; conditions: MTCC 739, 24 h
# [5] = system: Pseudomonas aeruginosa; assay: Antimicrobial activity against Pseudomonas aeruginosa MTCC 741 assessed as diameter of growth inhibition zone after 24 hr
# [6] = system: Bacillus cereus; assay: Antimicrobial activity against Bacillus cereus MTCC 430 assessed as growth inhibition after 24 hr by agar streak dilution method; conditions: MTCC 430, 24 h
# [7] = system: Aspergillus fumigatus; assay: Antimicrobial activity against Aspergillus fumigatus MTCC 343 assessed as growth inhibition after 48 hr by agar streak dilution method; conditions: MTCC 343, 48 h
# [8] = system: Proteus vulgaris; assay: Antimicrobial activity against Proteus vulgaris MTCC 1771 assessed as diameter of growth inhibition zone after 24 hr
# [9] = system: Aspergillus clavatus; assay: Antimicrobial activity against Aspergillus clavatus MTCC 1323 assessed as diameter of growth inhibition zone after 48 hr; note: test concentration or dose not given here
# [10] = system: Bacillus cereus; assay: Antimicrobial activity against Bacillus cereus MTCC 430 assessed as diameter of growth inhibition zone after 24 hr; note: test concentration or dose not given here
# [11] = system: Salmonella typhi; assay: Antimicrobial activity against Salmonella enterica subsp. enterica serovar Typhi MTCC 733 assessed as diameter of growth inhibition zone after 24 hr
# [12] = system: Proteus vulgaris; assay: Antimicrobial activity against Proteus vulgaris MTCC 1771 assessed as growth inhibition after 24 hr by agar streak dilution method; conditions: MTCC 1771, 24 h
# [13] = system: Shigella flexneri; assay: Antimicrobial activity against Shigella flexneri MTCC1457 assessed as diameter of growth inhibition zone after 24 hr
# [14] = system: Salmonella typhi; assay: Antimicrobial activity against Salmonella enterica subsp. enterica serovar Typhi MTCC 733 assessed as growth inhibition after 24 hr by agar streak dilution method; conditions: MTCC 733, 24 h
# [15] = system: Klebsiella pneumoniae; assay: Antimicrobial activity against Klebsiella pneumoniae MTCC 109 assessed as growth inhibition after 24 hr by agar streak dilution method; conditions: MTCC 109, 24 h
# [16] = system: Mycobacterium tuberculosis; assay: Antituberculosis activity against Mycobacterium tuberculosis H37Rv assessed as growth inhibition after 12 to 28 days by L-J MIC method; conditions: for MIC: Mycobacterium tuberculosis, H37Rv
# [17] = system: Aspergillus niger; assay: Antimicrobial activity against Aspergillus niger MTCC 282 assessed as diameter of growth inhibition zone after 48 hr; note: test concentration or dose not given here
# [18] = system: Aspergillus niger; assay: Antimicrobial activity against Aspergillus niger MTCC 282 assessed as growth inhibition after 48 hr by agar streak dilution method; conditions: MTCC 282, 48 h
# [19] = system: Aspergillus clavatus; assay: Antimicrobial activity against Aspergillus clavatus MTCC 1323 assessed as growth inhibition after 48 hr by agar streak dilution method; conditions: MTCC 1323, 48 h
# [20] = system: Aspergillus fumigatus; assay: Antimicrobial activity against Aspergillus fumigatus MTCC 343 assessed as diameter of growth inhibition zone after 48 hr; note: test concentration or dose not given here
# [21] = system: Staphylococcus aureus; assay: Antimicrobial activity against Staphylococcus aureus MTCC 96 assessed as diameter of growth inhibition zone after 24 hr; note: test concentration or dose not given here
# [22] = system: Pseudomonas aeruginosa; assay: Antimicrobial activity against Pseudomonas aeruginosa MTCC 741 assessed as growth inhibition after 24 hr by agar streak dilution method; conditions: MTCC 741, 24 h
# [23] = system: Klebsiella pneumoniae; assay: Antimicrobial activity against Klebsiella pneumoniae MTCC 109 assessed as diameter of growth inhibition zone after 24 hr; note: test concentration or dose not given here
# [24] = system: Escherichia coli; assay: Antimicrobial activity against Escherichia coli MTCC 739 assessed as diameter of growth inhibition zone after 24 hr; note: test concentration or dose not given here
# [25] = system: Candida albicans; assay: Antimicrobial activity against Candida albicans MTCC 183 assessed as growth inhibition after 48 hr by agar streak dilution method; conditions: MTCC 183, 48 h
SMILES,MIC [1] [µg/mL],diameter of the inhibition zone (DIZ) [2] [mm],MIC [3] [µg/mL],diameter of the inhibition zone (DIZ) [5] [mm],MIC [6] [µg/mL],MIC [7] [µg/mL],diameter of the inhibition zone (DIZ) [8] [mm],diameter of the inhibition zone (DIZ) [9] [mm],diameter of the inhibition zone (DIZ) [10] [mm],diameter of the inhibition zone (DIZ) [11] [mm],MIC [12] [µg/mL],diameter of the inhibition zone (DIZ) [13] [mm],MIC [14] [µg/mL],MIC [15] [µg/mL],growth inhibition (GI) [16] [%],MIC [16] [µg/mL],diameter of the inhibition zone (DIZ) [17] [mm],MIC [18] [µg/mL],MIC [19] [µg/mL],diameter of the inhibition zone (DIZ) [20] [mm],further results
N#Cc1c(-c2ccccc2Br)cc(-c2ccc(Nc3cc(=O)oc4ccccc34)cc2)nc1N,12.5,24,25,19,25,12.5,20,19,20,22,25,22,25,12.5,98,100,22,25,25,22,MIC [4]: 50 µg/mL; diameter of the inhibition zone (DIZ) [21]: 23 mm; MIC [22]: 50 µg/mL; diameter of the inhibition zone (DIZ) [23]: 23 mm; diameter of the inhibition zone (DIZ) [24]: 18 mm; MIC [25]: 25 µg/mL
NNC(=O)c1ccncc1 [ISONIAZID],–,–,–,–,–,–,–,–,–,–,–,–,–,–,99,0.2,–,–,–,–,–
CO[C@H]1/C=C/O[C@@]2(C)Oc3c(C)c(O)c4c(O)c(c(/C=N/N5CCN(C)CC5)c(O)c4c3C2=O)NC(=O)/C(C)=C\C=C\[C@H](C)[C@H](O)[C@@H](C)[C@@H](O)[C@@H](C)[C@H](OC(C)=O)[C@@H]1C [RIFAMPIN],–,–,–,–,–,–,–,–,–,–,–,–,–,–,99,0.25,–,–,–,–,–
O=C(O)c1cn(C2CC2)c2cc(N3CCNCC3)c(F)cc2c1=O [CIPROFLOXACIN],≤ 3,–,1,33,1,–,31,–,31,30,1,32,1,1,–,–,–,–,–,–,diameter of the inhibition zone (DIZ) [21]: 30 mm; MIC [22]: 1 µg/mL; diameter of the inhibition zone (DIZ) [23]: 33 mm; diameter of the inhibition zone (DIZ) [24]: 32 mm
CC(=O)N1CCN(c2ccc(OCC3COC(Cn4ccnc4)(c4ccc(Cl)cc4Cl)O3)cc2)CC1 (stereo not given) [KETOCONAZOLE],–,33,–,–,–,1,–,31,–,–,–,–,–,–,–,–,30,≤ 3,1,29,MIC [25]: 1 µg/mL
CC[C@@H](CO)NCCN[C@@H](CC)CO [ETHAMBUTOL],–,–,–,–,–,–,–,–,–,–,–,–,–,–,99,3.12,–,–,–,–,–
